Assays:
[1] = system: Dandelion (Taraxacum officinale); assay: Greenhouse foliar spraying on weed; assay type: in vivo; parameters: key: least resistant +; most resistant ++++++++; conditions: 6 treatments spaced 48 hours apart, C1 50 μM, C2 75 μM, C3 100 μM, harvest 7 weeks after germination; ranking among 8 weeds
Protocol: (§1) A 5 mM stock solution was prepared in 50% v/v ethanol (96°). Next, the solution was further diluted in distilled water to obtain 10 μM for in vitro testing and 50 μM, 75 μM and 100 μM for greenhouse testing. 0.1% v/v of the surfactant IGEPAL-Co 630 was added to the solution in order to obtain a product ready for spraying on seedlings in the greenhouse.
(§2) The different seeds are grown in a greenhouse in commercial potting soil (Terreau Universel, Fertiligene). The seeds were sown in the greenhouse under controlled temperature and humidity conditions (the temperature varies between 15° C. and 30° C. depending on the season, and the relative humidity varies from 50 to 70%). 6 isolated treatments (approximately 10 sprays each) spaced 48 hours apart were carried out one week after germination.
(§3) After 7 weeks, the seedlings were harvested. The roots and aboveground parts were separated and the roots were washed with distilled water and dried on absorbent paper. These materials were then stored at −20° C.
(§4) Tests in a greenhouse were carried out. All plants were exposed to 6 treatments with 3 increasing doses spaced 48 hours apart: C1 (50 μM or 13.6 mg/l), C2 (75 μM or 20.4 mg/l), C3 (100 μM or 27.2 mg/l). Harvesting was conducted 7 weeks after germination.

Fishing worms (maggots) = assay: Toxicity test on fishing worms (maggots); assay type: in vivo
Protocol: Fishing worms (maggots) were spray treated with 100 μM (27.2 mg/L) anigorufone. 30 fishing worms were cultured per petri dish and 10 sprays were performed per dish. The fishing worms were cultured under photoperiod conditions (16 h light/8 h dark); 8000 Lux; 22° C.). The experiment was conducted three times. […]

[2] = system: Tomato Lycopersicon esculentum var Marmande; assay: Greenhouse foliar spraying on plant of interest; assay type: in vivo
Protocol: as §1, §2, §3
(§5) The formulation in which the active ingredient is 50 μM Anigorufone was tested on a barley+poppy system and on tomato plants, with two treatments spaced 48 hours apart.
as §4

[3] = Photodegradation test, exposed to sunlight; assay type: physicochemical; conditions: 100 μM in distilled water
Protocol: A photodegradation test was conducted on 100 μM anigorufone exposed to sunlight. An anigorufone solution was prepared at the studied dose (100 μM) from a stock solution in 50 ml of distilled water in glass flasks. The flasks were placed outside and exposed to full sunlight. The experiment was carried out three times in June 2022 under light conditions corresponding to sunny/partially clear skies. 1 ml of the solution was run through UV-Vis spectrometry and photodegradation was tracked by the decrease in absorbance at 370 nm. […]

Onion (Allium cepa) = assay: Greenhouse foliar spraying on plant of interest; assay type: in vivo; conditions: 6 treatments spaced 48 hours apart, C1 50 μM, C2 75 μM, C3 100 μM, harvest 7 weeks after germination
Protocol: as §1, §2, §3, §4

[4] = system: Sunflower (Helianthus annuus); assay: Greenhouse foliar spraying on plant of interest; assay type: in vivo; conditions: 6 treatments spaced 48 hours apart
Protocol: as §1, §2, §3, §4

[5] = system: Spinach (Spinacia oleracea); assay: Greenhouse foliar spraying on plant of interest; assay type: in vivo; conditions: 6 treatments spaced 48 hours apart, C1 50 μM, C2 75 μM, C3 100 μM, harvest 7 weeks after germination
Protocol: as §1, §2, §3, §4

Corn (Zea mays) = assay: Greenhouse foliar spraying on plant of interest; assay type: in vivo; conditions: 6 treatments spaced 48 hours apart, C1 50 μM, C2 75 μM, C3 100 μM, harvest 7 weeks after germination
Protocol: as §1, §2, §3, §4

Turnip (Brassica napa) = assay: Greenhouse foliar spraying on plant of interest; assay type: in vivo; conditions: 6 treatments spaced 48 hours apart, C1 50 μM, C2 75 μM, C3 100 μM, harvest 7 weeks after germination
Protocol: as §1, §2, §3, §4

Wheat (Triticum sativum) = assay: Greenhouse foliar spraying on plant of interest; assay type: in vivo; conditions: 6 treatments spaced 48 hours apart, C1 50 μM, C2 75 μM, C3 100 μM, harvest 7 weeks after germination
Protocol: as §1, §2, §3, §4

Poppy (Papaver rhoeas) = assay: Greenhouse foliar spraying on weed; assay type: in vivo; parameters: key to Resistance (degree of resistance of the weed to the treatments): least resistant +; most resistant ++++++++
Protocol: as §1, §2, §3, §5
Tests in a greenhouse were carried out. All plants were exposed to 6 treatments with 3 increasing doses spaced 48 hours apart: C1 (50 μM or 13.6 mg/l), C2 (75 μM or 20.4 mg/l), C3 (100 μM or 27.2 mg/l). […]

growth of tomatoes compared to the control lot ([2]; 50 μM, two treatments spaced 48 hours apart, foliar spraying): does not affect their growth
growth of tomato plants two months after treatment ([2]; 50 μM, two treatments, two months after treatment, compared to untreated plants): normal growth
effect on tomato ([2]; 6 treatments spaced 48 hours apart, C1 50 μM, C2 75 μM, C3 100 μM, harvest 7 weeks after germination): no effect
photodegradation ([3]; after 2 weeks): degraded almost completely
persistent molecules ([3]; after 72 hours, absorbance at 370 nm): 30-40%
effect on onion (Onion (Allium cepa)): no effect
effect on sunflower ([4]; C1 50 μM, C2 75 μM, C3 100 μM, harvest 7 weeks after germination): no effect
effect on spinach [5]: no effect
effect on corn (Corn (Zea mays)): no effect
effect on turnip (Turnip (Brassica napa)): no effect
effect on wheat (Wheat (Triticum sativum)): no effect
Structure (SMILES): O=C1C(O)=Cc2cccc3ccc(-c4ccccc4)c1c23 [Anigorufone, 2-hydroxy-9-phenylphenalenone]
Resistance (degree of resistance of the weed to the treatments) [1]: ++++++++
viability rate of the maggots compared to the control conditions (Fishing worms (maggots); spray treated with 100 μM (27.2 mg/L), 10 sprays per dish, 30 worms per dish): remains constant
effects on fishing worms (Fishing worms (maggots); tested at 100 μM (27.2 mg/L), spray): no effects
flowering of sunflowers ([4]; treated with C1 (50 μM) and C2 (75 μM)): flowering induction
herbicidal effect on poppy (Poppy (Papaver rhoeas); 50 μM, two treatments spaced 48 hours apart, foliar spraying, 17-day-old seedlings, barley+poppy system): dead
Resistance (degree of resistance of the weed to the treatments) (Poppy (Papaver rhoeas); 6 treatments spaced 48 hours apart, C1 50 μM, C2 75 μM, C3 100 μM, harvest 7 weeks after germination, ranking among 8 weeds): +

— patent US20250040542A1, “USE OF PHENYLPHENALENONES AS A SELECTIVE HERBICIDE” (UNIVERSITE DE LIMOGES, priority 2021, published 2025)
